melting point [°C]	Structure (SMILES)
194.5 to 195	OCCc1ccc(Cc2ccncc2O[C@@H]2S[C@H](CO)[C@@H](O)[C@H](O)[C@H]2O)cc1 [Compound 32, 4′-[4′-(2′-hydroxyethyl)benzyl]pyridin-3′-yl 5-thio-β-D-glucopyranoside]
145 to 147	COc1ccc(Cc2c(O[C@@H]3S[C@H](CO)[C@@H](O)[C@H](O)[C@H]3O)n[nH]c2C)cc1F [Compound 4, 4′-[(3′-fluoro-4′-methoxyphenyl)methyl]-5′-methyl-1′H-pyrazol-3′-yl 5-thio-β-D-glucopyranoside]
181 to 183.5	CCc1ccc(Cc2nccnc2O[C@@H]2S[C@H](CO)[C@@H](O)[C@H](O)[C@H]2O)cc1 [Compound 23, 3′-(4′-ethylbenzyl)-1′H-pyrazin-2′-yl 5-thio-β-D-glucopyranoside]
106 to 110	CCOC(=O)OC[C@H]1S[C@@H](Oc2nn(C(=O)OCC)c(C)c2Cc2ccc(OC)cc2)[C@H](O)[C@@H](O)[C@@H]1O [Compound 8, 1′-ethoxycarbonyl-4′-[(4′-methoxyphenyl)methyl]-5′-methyl-pyrazol-3′-yl 6-O-ethoxycarbonyl-5-thio-β-D-glucopyranoside]
143 to 147.5	CCc1ccc(Cc2c(C)nc(C)nc2O[C@@H]2S[C@H](CO)[C@@H](O)[C@H](O)[C@H]2O)cc1 [Compound 24, 5′-(ethylbenzyl)-2′,6′-dimethyl-3′H-pyrimidin-4′-yl 5-thio-β-D-glucopyranoside]
54 to 58.5	CCc1ccc(Cc2c(O[C@@H]3S[C@H](CO)[C@@H](O)[C@H](O)[C@H]3O)nn(C(C)C)c2C)cc1 [Compound 1, 4′-(4′-ethylbenzyl)-1′-isopropyl-5′-methyl-1′H-pyrazol-3′-yl 5-thio-β-D-glucopyranoside]
184 to 187	CCc1ccc(Cc2ccncc2O[C@@H]2S[C@H](CO)[C@@H](O)[C@H](O)[C@H]2O)cc1 [Compound 20, 4′-(4′-ethylbenzyl)pyridin-3′-yl 5-thio-β-D-glucopyranoside]

— patent US7439232B2, “Heteroaryl 5-thio-β-D-glucopyranoside derivatives and therapeutic agents for diabetes containing the same” (Taisho Pharmaceutical Co., Ltd., priority 2003, dated 2008)
